Reference: patent publication US20070093536A1, “Target protein of antidiabetic and novel antidiabetic insuful corresponding thereto” (priority 2003, published 2007)
Read-outs that look alike come from different tables or passages of the source.

Biological target: T1, FLJ14797-derived protein (γ-tubulin ring complex protein) (Homo sapiens, UniProt Q9UGJ1)
T1 construct: histidine tag (N); FLAG tag (N); made in house; host or cells: cell-free protein synthesis system (PROTEIOS; TOYOBO) using wheat germ extracts
T1 sequence (Q9UGJ1 whole entry, one chain of several): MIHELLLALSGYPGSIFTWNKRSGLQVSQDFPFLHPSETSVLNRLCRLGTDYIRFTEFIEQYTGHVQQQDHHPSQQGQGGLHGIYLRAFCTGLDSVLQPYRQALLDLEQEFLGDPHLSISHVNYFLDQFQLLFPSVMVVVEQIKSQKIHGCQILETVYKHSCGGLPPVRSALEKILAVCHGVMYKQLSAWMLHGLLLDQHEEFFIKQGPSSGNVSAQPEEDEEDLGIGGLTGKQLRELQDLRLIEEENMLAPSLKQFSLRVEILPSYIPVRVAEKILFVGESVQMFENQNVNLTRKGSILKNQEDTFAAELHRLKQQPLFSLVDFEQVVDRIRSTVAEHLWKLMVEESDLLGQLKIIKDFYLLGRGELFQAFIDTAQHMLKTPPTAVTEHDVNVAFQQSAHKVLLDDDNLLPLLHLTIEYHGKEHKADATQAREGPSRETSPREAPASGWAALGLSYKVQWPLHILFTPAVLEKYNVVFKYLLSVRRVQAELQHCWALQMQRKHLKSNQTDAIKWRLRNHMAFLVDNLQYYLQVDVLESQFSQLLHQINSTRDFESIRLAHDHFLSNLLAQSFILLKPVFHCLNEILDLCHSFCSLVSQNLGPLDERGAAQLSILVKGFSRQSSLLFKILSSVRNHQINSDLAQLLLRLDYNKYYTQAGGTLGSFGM
Experiment: Biacore S51 surface plasmon resonance analysis of interaction between compound and immobilized FLJ14797-derived protein
Assay type: binding
Description: Genes of interest in human full-length cDNA clones were subjected to BP reaction with a PCR cloning vector Gateway pDONR201 using Gateway system available from Invitrogen according to the kit's protocol to give an entry vector. pEU3-NII (TOYOBO) compatible with a cell-free protein synthesis system (PROTEIOS; TOYOBO) using wheat germ extracts was used as a source vector, from which a double-tag destination vector used as the destination vector of the Gateway system was prepared by introducing Gateway cassette with Gateway recombinant sequence into the pEU3-NII vector so that the Gateway system could be utilized, and further modifying the resulting vector by PCR so that peptides having histidine and FLAG tag sequences would be expressed in the N-terminal region of an expressed protein.
The prepared double-tag destination vector and entry vector were used to conduct […] using the Gateway system (Invitrogen) according to the protocol. The resulting product was transformed into Escherichia coli competent cells DH5α to select clones where the expression vector was introduced. Plasmids were prepared from the obtained clones using QIAfilter Midi kit (QIAGEN) according to the kit's protocol. The obtained plasmids were treated with phenol and chloroform according to the PROTEIOS (TOYOBO) protocol and subjected to the inactivation treatment of RNase to give purified expression plasmids.
Recombinant proteins were synthesized by the cell-free protein synthesis system (PROTEIOS; TOYOBO) using wheat germ extracts. mRNA was prepared according to the PROTEIOS protocol from the expression plasmids obtained by the method described in the paragraph 1. A 20-μg aliquot of the obtained mRNA was used to synthesize proteins in 2 wells of a 96-well micro titer plate according to the PROTEIOS protocol. The synthesized proteins were subjected to high-speed centrifugation treatment to remove precipitations. The obtained soluble fractions were purified using ANTI-FLAG M2 Affinity Gel (SIGMA) immobilizing thereon an anti-FLAG tag antibody according to the protocol to give purified proteins.
The surface of a CM5 sensor chip for S51 commercially available from Biacore was converted to NTA using IM EDC, 1.33 M NHS, and 16 mg/ml AB-NTA (pH 9.2) to make an NTA sensor chip for S51. The proteins expressed in the wheat germ system and purified with a FLAG tag were immobilized on this chip. The immobilization was performed by sequentially injecting 0.5 M NiCl2, 0.4 M EDC, […], a ligand (protein) solution, and 1 M ethanolamine (pH 8.5) into the passage system of Biacore S51. A running buffer used for the immobilization was PBS (pH 7.4). The ligand-immobilized sensor chip was used to conduct assay described below. A running buffer used was prepared by adding DMSO at the final concentration of 5% to HBS (10 mM HEPES and 150 mM NaCl, (pH 7.6)), 0.005% P20, and 100 uM mineral ion cocktail (Ca(OAc)2, Zn(OAc)2.2H2O, Cu(OAc)2.H2O, Co(OAc)2.4H2O, Mn(OAc)2.4H2O, Mg(OAc)2.4H2O, and FeCl3.6H2O). Compounds to be measured were prepared by making ½ serial dilutions (9 points) from 62.5 uM to 0.244 uM solutions. Solvents used for the compound solutions were prepared in the same composition as that of the running buffer. A solution containing only the solvents without the compound was prepared for zero-concentration measurement. […]

[1] = Biacore S51, FLJ14797-derived protein, same way as Example 1, Table 1, read-out: KD

| Kd [1] [µM] | Kd (Biacore S51, FLJ14797-derived protein immobilized on NTA chip, compound 62.5 uM to 0.244 uM, Example 1, read-out: binding dissociation constant KD) [µM] | interaction with FLJ14797-derived protein (specificity of binding) (Biacore S51, binding dose-dependent and saturated at high doses) | Structure (SMILES) |
| --- | --- | --- | --- |
| 8.43 |  |  | CC1(OCCOc2ccc(CC3SC(=O)NC3=O)cc2)CCCCC1 (centres unmarked) [Compound A-1, 5-{4-[2-(1-methyl-cyclohexyloxy)-ethoxy]-benzyl}-thiazolidine-2,4-dione] |
|  | 9.04 | specific | CCc1ccc(CCOc2ccc(CC3SC(=O)NC3=O)cc2)nc1 (centres unmarked) [pioglitazone, reference compound] |
| 13.8 |  |  | O=C1NC(=O)C(Cc2ccc(OCCOC3CCCCC3)cc2)S1 (centres unmarked) [Compound A-2] |
| 21.6 |  |  | O=C1NC(=O)C(Cc2ccc(OCCOC3CCCC3)cc2)S1 (centres unmarked) [Compound A-3] |
